We go through 1 compound from patent publication US12570615B2, “Quinazolinone derivatives” (Hoffmann-La Roche Inc., priority 2021, dated 2026).

Each structure is given as a SMILES string.

In test [1] the test system is P-ERK (ERK phospho-T202/Y204) in A375 cells expressing V600E mutated BRAF. The experiment in a line: HTRF assay for P-ERK determination in A375 cells (BRAF inhibition). Conditions: Homo sapiens, A-375, P-ERK level, drug incubation 1 hour, DMSO = 100%, 10 μM Dabrafenib = 0%. The format is cell-based. The method in brief:
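A375 cells (8000/well) in DMEM with 10% FBS, plated overnight at 37 °C, then treated with compound at 0.001-10 μM final for 1 h. After lysis, ERK phospho-T202/Y204 was read by HTRF (665/620 nm ratio, blank-subtracted). Normalised to DMSO (100%) and 10 μM dabrafenib (0%); IC50 from sigmoidal fit.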
(Time-resolved FRET reads energy transfer from a long-lived donor to a nearby acceptor.)

In test [2] the test system is P-ERK (ERK phospho-T202/Y204) in HCT116 cells expressing WT BRAF. Briefly: HTRF assay for P-ERK determination in HCT116 cells (BRAF activation). The settings on record: Homo sapiens, HCT-116, drug incubation 1 hour, concentration giving 50% of the maximum activation achieved by Dabrafenib. The format is cell-based. A digest of the protocol: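 HCT116 cells (WT BRAF) were treated for 1 h at 37 °C in duplicate with compounds from 10 μM to 0.001 μM, then lysed. Phospho-ERK (T202/Y204) was read by HTRF at 665/620 nm. EC50 was taken from sigmoidal or bell-shaped fits, with DMSO set as 0% and the maximal dabrafenib signal as 100%.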

A further test addresses BRAF (wt) (Homo sapiens, UniProt P15056). Briefly: KD BRAF (wt) (Table 1). The format is binding.
In the next test the target is BRAF (V600E) (Homo sapiens, UniProt P15056, V600E). Briefly: KD BRAF (V600E) (Table 1). The class given is binding.
BRAF (V600E), sequence (P15056 whole entry V600E): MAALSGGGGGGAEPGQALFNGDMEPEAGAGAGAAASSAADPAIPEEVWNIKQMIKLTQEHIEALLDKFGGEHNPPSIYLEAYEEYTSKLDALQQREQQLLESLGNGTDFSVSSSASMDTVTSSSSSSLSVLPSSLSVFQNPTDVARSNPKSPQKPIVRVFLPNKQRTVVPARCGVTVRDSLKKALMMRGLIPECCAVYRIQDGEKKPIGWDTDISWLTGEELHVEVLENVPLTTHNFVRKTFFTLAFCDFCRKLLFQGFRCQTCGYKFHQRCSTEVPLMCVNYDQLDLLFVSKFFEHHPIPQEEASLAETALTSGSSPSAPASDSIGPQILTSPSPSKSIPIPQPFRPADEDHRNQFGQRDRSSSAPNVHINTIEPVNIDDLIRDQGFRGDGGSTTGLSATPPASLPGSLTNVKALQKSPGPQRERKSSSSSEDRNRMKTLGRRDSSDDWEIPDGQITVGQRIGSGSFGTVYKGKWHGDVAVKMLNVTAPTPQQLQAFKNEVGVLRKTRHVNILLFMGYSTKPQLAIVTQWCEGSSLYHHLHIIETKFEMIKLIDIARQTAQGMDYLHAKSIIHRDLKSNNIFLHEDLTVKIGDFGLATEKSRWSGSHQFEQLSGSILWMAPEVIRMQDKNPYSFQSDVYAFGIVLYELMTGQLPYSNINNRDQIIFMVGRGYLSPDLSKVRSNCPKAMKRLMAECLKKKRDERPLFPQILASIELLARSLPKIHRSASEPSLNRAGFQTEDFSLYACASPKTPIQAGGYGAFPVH

BRAF (wt), sequence (P15056 whole entry): as the sequence (P15056 whole entry V600E) above, with E600V counted along it

`CC(C)(C)OC(=O)N1CCC(CCn2cnc3ccc(Oc4c(F)ccc(NS(=O)(=O)N5CCCCC5)c4C#N)cc3c2=O)CC1` [Example 18, tert-butyl 4-[2-[6-[2-cyano-6-fluoro-3-(1-piperidylsulfonylamino)phenoxy]-4-oxo-quinazolin-3-yl]ethyl]piperidine-1-carboxylate] returned an IC50 in test [1] of 158 nM. The EC50 in test [2] came out at 1460 nM. The Kd on BRAF (wt) came to 45.4 nM; at BRAF (V600E), 57.5 nM.

In general, IC50 refers to the concentration that gives 50% inhibition. A low value points to greater potency. By EC50 is commonly meant the concentration giving half of the maximal effect. Usually Kd stands for a measure of binding affinity in units of concentration. High values mean lower affinity, low ones higher affinity.
